Biological target: T1, recombinant human sialidase NEU3 (Homo sapiens, UniProt Q9UQ49)
T1 construct: purchased Origene TP316537
T1 sequence (Q9UQ49 1-428): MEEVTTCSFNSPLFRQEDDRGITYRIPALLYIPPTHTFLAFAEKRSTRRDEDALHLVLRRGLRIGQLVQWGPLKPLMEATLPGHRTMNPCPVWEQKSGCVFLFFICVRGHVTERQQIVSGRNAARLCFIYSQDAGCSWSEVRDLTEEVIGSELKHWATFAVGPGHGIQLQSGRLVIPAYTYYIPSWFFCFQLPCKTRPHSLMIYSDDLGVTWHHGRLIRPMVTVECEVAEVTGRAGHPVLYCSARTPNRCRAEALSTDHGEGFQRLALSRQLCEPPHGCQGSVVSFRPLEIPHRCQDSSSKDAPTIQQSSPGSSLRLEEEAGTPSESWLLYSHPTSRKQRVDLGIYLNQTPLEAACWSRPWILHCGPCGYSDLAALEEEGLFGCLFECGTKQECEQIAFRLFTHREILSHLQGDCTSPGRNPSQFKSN
Experiment: NEU3-catalyzed L-TGF-β1 activation (TGF-β1 release/concentration assay, active TGF-β1 ELISA)
Format: biochemical
Conditions: recombinant human NEU3, L-TGF-β1, PBS pH 6.9, 2 hours 37° C.; read-out: IC50, inhibits human NEU3 in the TGF-β1 concentration assay
Protocol: To determine if NEU3 can cause latent transforming growth factor-β1 (L-TGF-β1) to release active TGF-β1, 200 ng/ml recombinant human L-TGF-β1 (299-LT/CF, R&D Systems) was incubated with varying concentrations of recombinant human NEU3 (TP316537, Origene) in a total volume of 100 μl of PBS pH 6.9 in a 96-well microplate (651261, Greiner Bio-one, Monroe, NC). The microplates were covered with aluminum foil and incubated at 37° C. for 2 hours. Following incubation, the reaction mixtures were assayed using a TGF-β1 ELISA kit (DY240, R&D Systems) following the manufacturer's protocol with the exception that the reaction mixtures were not processed for acid treatment, so as to measure only active TGF-β1 and not total TGF-β1. The absorbance was read with a SynergyMX plate reader (BioTek, Winooski, VT).
To determine the ability of compounds 1-31 to inhibit human recombinant NEU3 in-vitro, compounds were dissolved in 5 ml water to 20 mM in 15 ml tubes (89039-664, VWR, Radnor, PA), with the exception that 4-hydroxypyridine-2-carboxylic acid, nicotinic acid, and 4-aminopicolinic acid were dissolved in 50 μl DMSO to 2 M, and this was then added to 4.95 ml of water to make a 20 mM stock, and O-(tetrahydro-2H-pyran-2yl) hydroxylamine and salicylic acid were dissolved in 50 μl methanol to 2 M, and this was then added to 4.95 ml of water to make a 20 mM stock. All stocks were stored at 4° C. and used within 2 weeks of preparation. A 10-fold dilution series of the compounds starting at 2 mM were made in PBS pH 6.9 in 1.7 ml clear microtubes (22-281, Genesee Scientific). 100 μl of diluted compound was added to the well of a 96 well plate and then 50 μl of 400 ng/ml recombinant human sialidase NEU3 (TP316537, Origene) in PBS pH 6.9 was added to each well (50 μl PBS pH 6.9 for the control), and the plate was incubated for 30 minutes at 37° C. 50 μl of 800 ng/ml L-TGF-β1 (299-LT/CF, R&D Systems) in PBS pH 6.9 was then added to the well. The plate was covered with aluminum foil and incubated for 2 hours at 37° C., and released active TGF-β1 was assayed as described above.

IC50 [pM] | SMILES
14 | COC(=O)c1ccccn1 [Compound 6, methyl picolinate]
< 10 | CN1CCC(N)CC1C(=O)O (stereo not drawn) [Compound 26, 2-piperidinecarboxylic acid, 4-amino-1-methyl]
42000 | CC(=O)c1ccccn1 [Compound 5, 2-acetylpyridine]

Reference: patent publication US12616674B2, “Anti-fibrotic NEU3 inhibitor compounds and methods of use” (The Texas A&M University System, priority 2019, dated 2026)
